From patent publication US20220054644A1, “NOVEL DRUG DELIVERY CONJUGATED MOIETY FOR ORAL ADMINISTRATION OF DRUG UNSUITABLE FOR ORAL ADMINISTRATION AND PREPARATION METHOD THEREOF” (ST PHARM CO., LTD, priority 2015, published 2022)

Key:
FXa (Bovine Factor Xa) = assay: Measurement of FXa: heparin activity with COATEST HEPARIN FXa assay kit; format: biochemical; settings: chromogenic substrate S-2222, absorbance at 405 nm
Experimental: The term “heparin activity” refers to the anticoagulant ability of heparin.
Stock solutions were prepared from 10 IU/ml of standard solution by accurately preparing test substances and then diluted to 0.1 IU/ml with buffer working solution (Tris 0.5 mol/L, pH=8.4, 10 ml, Chromogenix) to prepare standard solutions for each dose as shown in the following table 2 and used for the analysis.
Each 200 μL of pretreated samples was placed in a cuvette and preheated at 37° C. for 3 to 4 minutes. Each 100 μl of FXa (Bovine Factor Xa 71 nkat., Chromogenix) was added thereto and left at 37° C. for about 30 seconds. Then, each 200 μl of S-2222 (Chromogenic substrate (Bz-Ile-Glu-(g-OR)-Gly-Arg-pNA.HCl), Chromogenix) was added thereto and left at 37° C. for 3 minutes. Subsequently, each 300 μl of 20% acetic acid was added thereto, and then the absorbance was measured at 405 nm. At this time, the measurement should be performed within 4 hours.
A linear regression equation was obtained using calibration curve of the standard solutions and converted to obtain the titers of the samples.

[1] = tested on: deep vein thrombosis (DVT) disease models; assay: Measurement of DVT activities (rat deep vein thrombosis model); format: in vivo; settings: rats, LMWH (enoxaparin) injected subcutaneously
Experimental: Low molecular weight heparin (enoxaparin) was administered to one group by subcutaneous injection, and the formulated complex of Example 2 was administered orally to other groups. […] The distal end of the vein along about 3 cm was weakly tied off, and the remaining veins were strongly tied off. 60 minutes after the drug treatment, 1 mL/kg of human pooled plasma was administered intravenously to the ends of the tails at 37° C., and the veins were tied off after 15 seconds to prevent blood flow. The veins were isolated 120 minutes after the drug treatment and stored in a Petri dish with 3.8% sodium citrate. Then, thrombus was isolated, and the amount of […] generated was measured.

[2] = rat, in vivo, iv, 2 mg/kg
Experimental: The following experiment was performed to determine the pharmacokinetic (PK) behavior of heparin administered orally using the drug delivery conjugated moiety of the present invention.
Prior to drug administration, experimental animals (rats) were fasted for more than 4 hours to empty the stomach. Then, after the dorsal skin was fixed, forced oral administration was performed using a sonde and a syringe for oral administration, and the animals were fed again about 4 hours after the administration. […] Blood samples (450 μL) were collected in a tube containing sodium citrate (50 μL) and centrifuged at 4500×g for 20 minutes to isolate plasma, which was then stored in a deep freezer at −70° C. The concentration of the drug delivery conjugated moiety-heparin complex in the plasma was analyzed using the COATEST HEPARIN FXa assay (Chromogenix).

In the case of enoxaparin [LMWH], the “Anti-factor Xa activity” value (FXa (Bovine Factor Xa)) was 101 IU/mg, the “thrombus generated, compared with complex of Example 2” value [1] was “almost the same results” and the “AUC (Area under the concentration-time curve from 0 to 8 h)” value [2] was 1.8 ± 0.1 IU · h/ml. The “CL (Clearance)” value [2] was 17 ± 0 mL/day/kg, the “Emax (Maximum effective concentration)” value [2] was 1.61 ± 0.02 IU/ml and the “Tmax (Time to reach maximum effective concentration)” value [2] was 12 ± 0 min. For the same substance, the “t1/2 (Half-life of drug)” value [2] was 72 ± 6 min.
